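The compound was tested at five concentrations on cells cultured in 96-well plates, with a 48-hour exposure period. GI50 marks 50% less growth. Definition used: TGI = concentration required for complete inhibition of growth.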
Legend:
Experiment in all cases: NCI tumour cell line growth inhibition, 48 h
COLO 205 colon = tested on: COLO 205 colon
DU-145 prostate = tested on: DU-145 prostate
HL-60(TB) leukemia = tested on: HL-60(TB) leukemia
LOX IMVI melanoma = tested on: LOX IMVI melanoma
MALME-3M melanoma = tested on: MALME-3M melanoma
NCI-H226 lung = tested on: NCI-H226 lung
NCI-H522 lung = tested on: NCI-H522 lung
OVCAR-8 ovarian = tested on: OVCAR-8 ovarian
PC-3 prostate = tested on: PC-3 prostate
SK-MEL-28 melanoma = tested on: SK-MEL-28 melanoma

SMILES | TGI (COLO 205 colon) | TGI (DU-145 prostate) | TGI (HL-60(TB) leukemia) | TGI (LOX IMVI melanoma) | TGI (MALME-3M melanoma) | TGI (NCI-H226 lung) | TGI (NCI-H522 lung) | TGI (OVCAR-8 ovarian) | TGI (PC-3 prostate) | TGI (SK-MEL-28 melanoma) | GI50 (COLO 205 colon) | GI50 (DU-145 prostate) | GI50 (HL-60(TB) leukemia) | GI50 (LOX IMVI melanoma) | GI50 (MALME-3M melanoma) | GI50 (NCI-H226 lung) | GI50 (NCI-H522 lung) | GI50 (OVCAR-8 ovarian) | GI50 (PC-3 prostate) | GI50 (SK-MEL-28 melanoma)
OC(CC(O)(C(F)(F)Cl)C(F)(F)Cl)c1ccccc1 (configuration not stated) | > 10 µM | > 10 µM | > 10 µM | > 10 µM | > 10 µM | > 10 µM | > 10 µM | > 10 µM | > 10 µM | > 10 µM |  |  |  |  |  |  |  |  |  | 
CCn1ncc2c(=O)n3ncn(-c4ccc(Br)cc4)c3nc21 | > 100 µM | > 100 µM | > 100 µM |  | > 100 µM | > 100 µM | > 100 µM | > 100 µM | > 100 µM | > 100 µM |  |  |  |  |  |  |  |  |  | 
CC/C=N\N1C(N)=C(C#N)C(C#N)(C#N)C1CC (configuration not stated) | > 100 µM | > 100 µM | 85.6 µM | > 100 µM | > 100 µM | > 100 µM | > 100 µM | > 100 µM | > 100 µM | > 100 µM |  |  |  |  |  |  |  |  |  | 
O=[N+]([O-])c1ccc(-c2csc(=[N+]3CCCCC3)s2)cc1 | 5.58 µM |  | > 86.6 µM | > 100 µM | 32.1 µM |  | 18.3 µM | > 100 µM |  | > 100 µM |  |  |  |  |  |  |  |  |  | 
CO[P@@]1(=O)O[C@@H](c2ccccc2)[C@H](O)[C@]1(O)c1ccccc1 | > 100 µM | > 100 µM | > 100 µM | > 100 µM | > 100 µM | > 100 µM | > 100 µM | > 100 µM | > 100 µM | > 100 µM |  |  |  |  |  |  |  |  |  | 
N#Cc1c(-c2ccc([N+](=O)[O-])cc2)c(C#N)c(=O)n(NS(=O)(=O)c2ccccc2)c1O | > 100 µM |  | > 100 µM | > 100 µM | > 100 µM | > 100 µM | > 100 µM | > 100 µM | > 100 µM | > 100 µM |  |  |  |  |  |  |  |  |  | 
CN(C)CCNCCCNc1c2ccccc2nc2cccc([N+](=O)[O-])c12 | 0.0245 µM | 0.0525 µM | 0.0247 µM | < 0.0253 µM | 0.104 µM | 0.102 µM | < 0.0133 µM | 0.0532 µM | 0.0609 µM | 0.442 µM |  |  |  |  |  |  |  |  |  | 
CC(C)=CCC[C@@H](C)C1=C(Nc2ccccc2F)C(O)=C(C)C(=O)C1=O | 12.4 µM | > 100 µM |  | > 100 µM | 29.5 µM | 24 µM | 17.1 µM | > 30.2 µM | > 100 µM | > 64.3 µM |  |  |  |  |  |  |  |  |  | 
Cc1cc(S(=O)(=O)N=C2Nc3cccc4cccc(c34)N2)c(S)cc1Cl | > 100 µM | > 100 µM | > 100 µM | > 100 µM | > 100 µM | > 100 µM | > 100 µM | > 100 µM | > 100 µM | > 100 µM |  |  |  |  |  |  |  |  |  | 
CCOC(=O)c1c(-c2ccccc2)c(OC)cn1C | > 10 µM | > 10 µM | > 10 µM | > 10 µM | > 10 µM | > 10 µM | > 10 µM | > 10 µM | > 10 µM | > 10 µM |  |  |  |  |  |  |  |  |  | 
CC(=O)/C(=N\Nc1ccc(Cl)cc1)C(C)=Nc1ccc(C)cc1 | 43.1 µM | > 100 µM |  | > 100 µM | 59.2 µM | 83.7 µM | 66.7 µM | > 100 µM | > 100 µM | > 100 µM |  |  |  |  |  |  |  |  |  | 
NC(=O)NN=C1Cc2ccccc2C1 | > 100 µM | > 100 µM | > 100 µM | > 100 µM | > 100 µM | > 100 µM | > 100 µM | > 100 µM | > 100 µM | > 100 µM |  |  |  |  |  |  |  |  |  | 
O=C1CSC(c2c[nH]c3ccccc23)N1c1ccc(Cl)cc1Cl (configuration not stated) | > 100 µM | > 100 µM | > 100 µM | > 100 µM |  |  | > 100 µM | > 100 µM | > 100 µM | > 100 µM |  |  |  |  |  |  |  |  |  | 
O=C1c2cc3c(cc2-c2c1c1ccc(Cl)cc1c(=O)n2CCCn1ccnc1)OCO3 | > 100 µM | 0.282 µM | 1.93 µM | 0.0297 µM | > 100 µM | > 100 µM | 30.7 µM | > 100 µM | > 100 µM | > 100 µM | 0.0552 µM | < 0.01 µM | < 0.01 µM | < 0.01 µM | 0.0647 µM | 0.0186 µM | 0.0182 µM | 0.0116 µM | 0.0438 µM | 0.158 µM
COc1ccc(C2c3cc4c(cc3OC(Nc3ccccc3)C2C)OCO4)cc1 (configuration not stated) | > 100 µM | > 100 µM | 59.3 µM | > 100 µM | > 100 µM | > 100 µM | > 100 µM |  | > 100 µM | > 100 µM |  |  |  |  |  |  |  |  |  | 
CC1(C)C=C(/C=C2/N(S(=O)(=O)C(F)(F)F)C(/C=C3/N(S(=O)(=O)C(F)(F)F)C(C)(C#N)CC3(C)C)=CC2(C)C)N=C1/C=C1/CC(C)(C)C(=O)N1 (configuration not stated) | 39.2 µM | > 100 µM | 21.2 µM | 72.9 µM |  | > 100 µM | 27.9 µM | > 100 µM | > 100 µM | > 100 µM |  |  |  |  |  |  |  |  |  | 
CC[C@]12C=CCN3CCC4(c5cc([C@@]6(C(=O)OC)CC7CN(CCc8c6[nH]c6ccccc86)CC6CCCCC67)c(OC)cc5N(C)C4[C@](O)(C(=O)OC)C1OC(C)=O)[C@@H]32 (some centres not stated) | < 0.01 µM | 14.2 µM | > 100 µM | 6.46 µM | 7.05 µM | 2.42 µM | < 0.0165 µM | 0.747 µM | 0.393 µM |  |  |  |  |  |  |  |  |  |  | 
O=C1Nc2cc(F)ccc2C1=O | > 100 µM |  | > 100 µM | > 100 µM | > 100 µM | > 100 µM | > 100 µM | > 100 µM |  | > 100 µM |  |  |  |  |  |  |  |  |  | 
O=C(c1ccc([N+](=O)[O-])cc1)N1CCCC1 |  | > 100 µM | > 100 µM | > 100 µM | > 100 µM | > 100 µM | > 100 µM | > 100 µM | > 100 µM | > 100 µM |  |  |  |  |  |  |  |  |  | 
CSc1ncc2c(n1)-c1ccccc1OC2NC1CC1 (configuration not stated) | > 100 µM | > 100 µM | 73.3 µM | > 100 µM |  | > 100 µM | 82.5 µM | > 100 µM | > 100 µM |  |  |  |  |  |  |  |  |  |  | 
CCOC(=O)/C=C/CCC(C)(C)COC(C)=O | > 10 µM | > 10 µM | > 10 µM | > 10 µM |  | > 10 µM | > 10 µM | > 10 µM | > 10 µM | > 10 µM |  |  |  |  |  |  |  |  |  | 
